Entries after “also recorded” stand apart in the source; their conditions may differ. Where a name gives a salt, the structure may show the parent alone.
Target: T1, CYP1A2 (Homo sapiens, UniProt P05177)
T1 sequence (P05177 1-516): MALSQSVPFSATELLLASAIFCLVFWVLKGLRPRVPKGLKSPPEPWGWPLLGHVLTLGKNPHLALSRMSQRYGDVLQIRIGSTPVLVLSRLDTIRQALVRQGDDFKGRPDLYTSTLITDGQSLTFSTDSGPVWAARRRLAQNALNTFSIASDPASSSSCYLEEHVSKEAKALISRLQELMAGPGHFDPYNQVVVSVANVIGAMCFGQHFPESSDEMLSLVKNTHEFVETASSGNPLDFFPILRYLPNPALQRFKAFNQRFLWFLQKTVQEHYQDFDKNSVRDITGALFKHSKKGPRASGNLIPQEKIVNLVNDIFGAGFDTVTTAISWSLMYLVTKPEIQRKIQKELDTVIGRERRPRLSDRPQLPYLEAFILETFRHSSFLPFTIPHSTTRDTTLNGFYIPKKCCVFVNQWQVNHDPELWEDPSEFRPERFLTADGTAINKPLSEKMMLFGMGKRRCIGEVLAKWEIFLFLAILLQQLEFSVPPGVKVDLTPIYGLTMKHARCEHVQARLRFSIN
Assay: in vitro
Format: biochemical
Details: 1 μM active ingredient, Rh CYP1A2-mediated phenacetin O-deethylation, test dataset of 202 herb ingredients
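Note: recombinant CYP1A2 incubated for 1 h at 37 °C, with the reaction started by an NADPH-generating system.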

Row | Molecule | % of Control Indication Activity (Mean) [%]
1 | COc1cc2c(cc1OC)[C@@H](Cc1ccc(O)c(Oc3cc4c(cc3OC)CCN(C)[C@@H]4Cc3ccc(O)cc3)c1)N(C)CC2 [Liensinine] | > 90
2 | COc1ccc(-c2cc(=O)c3c(O)cc(O[C@@H]4O[C@H](CO[C@@H]5O[C@@H](C)[C@H](O)[C@@H](O)[C@H]5O)[C@@H](O)[C@H](O)[C@H]4O)cc3o2)cc1 [Linarin] | > 90
3 | C=C1C(=O)O[C@@H]2C[C@@]3(C)CCC[C@H](C)C3=C[C@H]12 [Alantolactone] | > 90
4 | CC(=O)O[C@H]1C[C@]2(O)[C@@H]3CC[C@@H]4C[C@@H](O)CC[C@]4(C)[C@H]3CC[C@]2(C)[C@H]1c1ccc(=O)oc1 [Bufatalin] | > 90
5 | CC(C)=CCC[C@](C)(O[C@@H]1O[C@H](CO)[C@@H](O)[C@H](O)[C@H]1O)[C@H]1CC[C@]2(C)[C@@H]1[C@H](O)C[C@@H]1[C@@]3(C)CC[C@H](O)C(C)(C)[C@@H]3[C@@H](O[C@@H]3O[C@H](CO)[C@@H](O)[C@H](O)[C@H]3O[C@@H]3OC[C@@H](O)[C@H](O)[C@H]3O)C[C@]12C [Notoginsenoside R1] | > 90
6 | COc1ccc([C@H]2OC[C@H]3[C@@H]2CO[C@H]3c2ccc(O[C@@H]3O[C@H](CO)[C@@H](O)[C@H](O)[C@H]3O)c(OC)c2)cc1OC [Forsythin] | > 90
7 | Salvianolic acid B | > 90
8 | C[C@H]1CC[C@@]2(O)C(C)(C)[C@@H]3CC[C@@]2(C)[C@H]1C3 [Patchouli alcohol] | > 90

Same assay, conditions: 1 μM test concentration

Row | Molecule | inhibitory activity to CYP1A2 (10% or greater inhibition at 1 μM)
9 | COc1cc(-c2oc3cc(O)c(OC)c(O)c3c(=O)c2O)ccc1O [zhang 817, Spinacetin] | found to have inhibition of CYP1A2 activity; also recorded: confirmed to have inhibitory activities to CYP1A2
10 | O=c1ccc2ccc(Oc3cc4cc(O)c(O)cc4oc3=O)cc2o1 [zhang 300, Edgeworthin] | found to have inhibition of CYP1A2 activity; also recorded: confirmed to have inhibitory activities to CYP1A2

Same assay, conditions: human, recombinant enzyme, pH 7.4

Row | Molecule | activity at 1 h, 1 μM [%]
11 | O=c1ccc2cc(O)c(O)cc2o1 [Esculetin] | > 90
12 | O=c1c(-c2ccc(O)cc2)coc2c([C@@H]3O[C@H](CO)[C@@H](O)[C@H](O)[C@H]3O)c(O)ccc12 [Puerarin] | > 90
13 | CNCC(O)c1ccc(O)cc1 (stereo not shown) [Synephrine] | > 90
14 | COc1ccc2cc1Oc1ccc(cc1)C[C@H]1c3cc(c(OC)cc3CCN1C)Oc1c(OC)c(OC)cc3c1[C@H](C2)N(C)CC3 [Tetrandrine] | > 90
15 | COc1ccc(-c2oc3c(CC=C(C)C)c(O)cc(O)c3c(=O)c2O)cc1 [Icaritin] | > 90
16 | O=c1c2ccccc2nc2n1CCc1c-2[nH]c2ccccc12 [Rutaecarpine] | > 90
17 | COc1cc(/C=C/CO)cc(OC)c1O[C@@H]1O[C@H](CO)[C@@H](O)[C@H](O)[C@H]1O [Syringin] | > 90
18 | O=c1cc(-c2ccccc2)oc2cc(O)c(O)c(O)c12 [Baicalein] | > 90
19 | O=c1c(-c2ccc(O)cc2)coc2cc(O)ccc12 [Daidzein] | > 90
20 | C[C@@H]1O[C@@H](Oc2cc(O)c3c(=O)c(O)c(-c4ccc(O)cc4)oc3c2O)[C@H](O)[C@H](O)[C@H]1O [Rhodionin] | > 90

Same assay, conditions: human, recombinant enzyme, pH 7.4; 1 μM active ingredient, Rh CYP1A2-mediated phenacetin O-deethylation, test dataset of 202 herb ingredients; read-out: % of Control Indication Activity (Mean)

Row | Molecule | activity at 1 h, 1 μM [%]
21 | C=CCc1ccc(O)c(OC)c1 [Eugenol] | > 90

Same assay, conditions: human, recombinant human CYP1A2, pH 7.4, probe phenacetin (25 μM), O-deethylation to acetaminophen; 1 μM active ingredient, Rh CYP1A2-mediated phenacetin O-deethylation, test dataset of 202 herb ingredients; read-out: % of Control Indication Activity (Mean)

Row | Molecule | activity at 1 h, 1 μM [%]
22 | CC(C)=CCC[C@](C)(O[C@@H]1O[C@H](CO)[C@@H](O)[C@H](O)[C@H]1O)[C@H]1CC[C@]2(C)[C@@H]1[C@H](O)C[C@@H]1[C@@]3(C)CC[C@H](O)C(C)(C)[C@@H]3[C@@H](O)C[C@]12C [Ginsenoside F1] | > 90
23 | COc1cc2c(c(OC)c1OC)-c1c(cc(OC)c(OC)c1OC)C[C@](C)(O)[C@@H](C)C2 [Schizandrin] | > 90
24 | CC1(C)[C@@H](O)CC[C@]2(C)[C@H]3C(=O)C=C4[C@@H]5C[C@@](C)(C(=O)O)CC[C@]5(C)CC[C@@]4(C)[C@]3(C)CC[C@@H]12 [Glycyrrhetinic acid] | > 90
25 | CC12CCC(CC1)C(C)(C)O2 [Eucalyptol] | > 90
26 | O=c1cc(-c2ccc(O)cc2)oc2c([C@@H]3O[C@H](CO)[C@@H](O)[C@H](O)[C@H]3O)c(O)cc(O)c12 [Vitexin] | > 90
27 | Oc1cc(O)c2c(c1)O[C@H](c1ccc(O)c(O)c1)[C@H](O)C2 [(−)-Epicatechin] | > 90
28 | COc1ccc(C=O)c(O)c1 [4-Methoxysalicylaldehyde] | > 90
29 | C[N+](C)(C)CC(=O)O [Betaine] | > 90
30 | Cc1coc2c1C(=O)C(=O)c1c-2ccc2c1CCCC2(C)C [Tanshinone IIA] | 28.3
31 | COC(=O)C1=CO[C@@H](O[C@@H]2O[C@H](CO)[C@@H](O)[C@H](O)[C@H]2O)[C@@H]2[C@@H](C)[C@@H](O)C[C@H]12 [Loganin] | > 90
32 | CC(C)=CCC[C@](C)(O[C@@H]1O[C@H](CO)[C@@H](O)[C@H](O)[C@H]1O)[C@H]1CC[C@]2(C)[C@@H]1[C@H](O)C[C@@H]1[C@@]3(C)CC[C@H](O)C(C)(C)[C@@H]3[C@@H](O[C@@H]3O[C@H](CO)[C@@H](O)[C@H](O)[C@H]3O[C@@H]3O[C@@H](C)[C@H](O)[C@@H](O)[C@H]3O)C[C@]12C [Ginsenoside Re] | > 90
33 | COc1ccc(-c2cc(=O)c3c(O)c(OC)c(O[C@@H]4O[C@H](CO[C@@H]5O[C@@H](C)[C@H](O)[C@@H](O)[C@H]5O)[C@@H](O)[C@H](O)[C@H]4O)cc3o2)cc1 [Pectolinarin] | > 90
34 | C[C@]1(OC(=O)/C=C/c2ccccc2)C[C@@H](O)[C@]2(O)C=CO[C@@H](O[C@@H]3O[C@H](CO)[C@@H](O)[C@H](O)[C@H]3O)[C@@H]21 [Harpagoside] | > 90
35 | O=C1Nc2ccccc2/C1=C1/Nc2ccccc2C1=O [Indirubin] | > 90
36 | CC(C)=CCC[C@](C)(O[C@@H]1O[C@H](CO[C@@H]2O[C@H](CO)[C@@H](O)[C@H](O)[C@H]2O)[C@@H](O)[C@H](O)[C@H]1O)[C@H]1CC[C@]2(C)[C@@H]1[C@H](O)C[C@@H]1[C@@]3(C)CC[C@H](O[C@@H]4O[C@H](CO)[C@@H](O)[C@H](O)[C@H]4O[C@@H]4O[C@H](CO)[C@@H](O)[C@H](O)[C@H]4O)C(C)(C)[C@@H]3CC[C@]12C [Ginsenoside Rb1] | > 90
37 | COc1ccc(/C=C/C(=O)O)cc1O [Isoferulic acid] | > 90
38 | CC1=C2C(=O)O[C@@H](c3ccoc3)[C@]2(C)CCC1 [Fraxinellone] | > 90

Same assay, conditions: human, recombinant human CYP1A2, pH 7.4, probe phenacetin (25 μM), O-deethylation to acetaminophen; 1 μM test compound, 25 μM phenacetin, average of duplicate determinations; read-out: % of Control Indication Activity

Row | Molecule | activity at 1 h, 1 μM [%]
39 | COc1cc(O)c2c(=O)c(O[C@@H]3O[C@H](CO)[C@H](O)[C@H](O)[C@H]3O)c(-c3ccc(O)c(O)c3)oc2c1 [zhang 83, rhamnetin 3-O-β-D-galactopyranoside] | > 90
40 | COc1cc(O)c2c(=O)c(O[C@@H]3O[C@H](CO)[C@@H](O)[C@H](O)[C@H]3O)c(-c3ccc(O)c(O)c3)oc2c1 [zhang 84, rhamnetin 3-O-β-D-glucopyranoside] | > 90
41 | COc1cc(-c2oc3cc(O)c(OC)c(O)c3c(=O)c2O)ccc1O [zhang 817, Spinacetin] | < 90
42 | COc1cc(C(O)C(CO)Oc2ccc(/C=C\CO)cc2OC)ccc1O (single isomer, unassigned; (-)) [zhang 779, (−)-Threo-guaiacylglycerol-8-O-4′-(coniferyl alcohol) ether] | > 90
43 | COc1ccc(-c2oc3cc(O)cc(O)c3c(=O)c2OC)cc1OC [zhang 759, 3,3′,4′-Tri-Me ether-3,3′,4′,5,7-Pentahydroxyflavone] | > 90
44 | O=c1ccc2ccc(Oc3cc4cc(O)c(O)cc4oc3=O)cc2o1 [zhang 300, Edgeworthin] | < 90
45 | O=c1c(O[C@@H]2OC[C@@H](O)[C@@H](O)[C@@H]2O)c(-c2ccc(O)c(O)c2)oc2cc(O)cc(O)c12 [zhang 205, quercetin-3-O-β-D-arabinopyranoside] | > 90
46 | CC(C)=CCC/C(C)=C/Cc1c(O)cc(O)c2c(=O)c3c(O)c4c(cc3oc12)OCO4 [zhang 89, 1,6,8-trihydroxy-2,3-methylenedioxy-5-geranylxanthone] | > 90

Same assay, conditions: recombinant enzyme

Row | Molecule | % of Control Indication Activity (Mean)
47 | COc1cc(/C=C/C(=O)OCC[N+](C)(C)C)cc(OC)c1O [Sinapine] | > 90
48 | C=C1CC[C@@H]2[C@](C)(CO)[C@H](O)CC[C@@]2(C)[C@@H]1/C=C/C1=CCOC1=O [Dehydroandrographolide] | > 90
49 | COc1cc2c(cc1OC)-c1cc3ccc(OC)c(OC)c3c[n+]1CC2.[Cl-] [Palmatine Hydrochloride] | > 90

Same assay, conditions: recombinant enzyme, pH 7.4

Row | Molecule | activity [%]
50 | CN1[C@@H]2C[C@@H](OC(=O)[C@H](CO)c3ccccc3)C[C@H]1[C@@H]1O[C@@H]12 [Scopolamine Hydrobromide] | > 90

Same assay, conditions: recombinant enzyme, pH 7.4; 1 μM active ingredient, Rh CYP1A2-mediated phenacetin O-deethylation, test dataset of 202 herb ingredients; read-out: % of Control Indication Activity (Mean)

Row | Molecule | activity [%] | activity at 1 h, 1 μM [%]
51 | COC(=O)C1=CCCN(C)C1 [Arecoline] | > 90 | –
52 | O=C(/C=C/C=C/c1ccc2c(c1)OCO2)N1CCCCC1 [Piperine] | – | > 90
